From patent US20230100235A1, “ANTICANCER AGENT COMPOSITION” (CARNA BIOSCIENCES, INC., priority 2020, published 2023)
Structures can show the parent of a compound that is named as a salt. Where two headings read alike, the source gives them in different places.

How the values were obtained:
Assay type in all cases: cell-based, Human
[1] = tested on: BTK-C481S-mutant OCI-Ly10 cells; experiment: Cell proliferation suppression test of single agents, BTK-C481S-mutant OCI-Ly10; details: single agent, read-out: Inhibitory activity on cell proliferation OCI-Ly10 BTK-C481S IC50
Experimental: (§1) The OCI-Ly10 or U2932 cells (20000 cells/well) were seeded into 96-well plates (cell plates), to which the test compound diluted with the medium was added at final concentrations of 0.009 nM to 30000 nM (a final DMSO concentration of 0.3%), and after 96 hours of culture, an Alamar Blue reagent (Thermo Fisher Scientific Inc.) was added. After 3 hours, the fluorescence of excitation wavelength 560 nm/fluorescence wavelength 590 nm was measured and IC50 values of inhibitory activity were determined by setting a compound-free and cell-free well as 100% and a compound-free and cell-containing well as 0%.
BTK-C481S-mutant OCI-Ly10 cells were produced by point mutation knock-in using the CRISPR-Cas9 system. Cas9 protein (Thermo Fisher Scientific Inc.), guide RNA prepared with GeneArt™ Precision gRNA Synthesis Kit (Thermo Fisher Scientific Inc.), and a single-stranded synthetic oligonucleotide to replace 481st cysteine residue of BTK with a serine residue were introduced into OCI-Ly10 cells by an electroporation method. The resulting modified OCI-Ly10 cells were cultured in the presence of ibrutinib, and the grown cells were used as BTK-C481S-mutant OCI-Ly10 cells. Transduction of the mutation was confirmed by genomic DNA and mRNA sequence analysis.
In the same manner as in Test Example 1, IC50 values for each inhibitor single agent were determined.

[2] = tested on: U2932 cells; experiment: Cell proliferation suppression test of single agents, U2932 (Alamar Blue, 96 h); details: read-out: Inhibitory Activity on cell proliferation IC50 U2932
Experimental: Human lymphoma cell line U2932 cells (obtained from DSMZ) were cultured in a 5% CO2 incubator using RPMI medium (Roswell Park Memorial Institute medium, Thermo Fisher Scientific Inc.) containing 10% fetal bovine serum (GE Healthcare) and 1% penicillin streptomycin (NACALAI TESQUE, INC.).
as §1

[3] = tested on: OCI-Ly10 cells; experiment: Cell proliferation suppression test of single agents, OCI-Ly10 (Alamar Blue, 96 h); details: read-out: Inhibitory Activity on cell proliferation IC50 OCI-Ly10
Experimental: Human lymphoma cell line OCI-Ly10 cells (obtained from University Health Network) were cultured in a 5% CO2 incubator using IMDM medium (Iscove's Modified Dulbecco's Medium, Thermo Fisher Scientific Inc.) containing 20% fetal bovine serum (GE Healthcare) and 1% penicillin streptomycin (NACALAI TESQUE, INC.).
as §1

[4] = Homo sapiens, U2932, single agent
[5] = Homo sapiens, OCI-Ly10, single agent

| IC50 ([1]; Homo sapiens, OCI-Ly10) [nM] | IC50 [3, 5] [nM] | IC50 [1] [nM] | IC50 ([3]; single agent) [nM] | SMILES | IC50 [2, 4] [nM] | IC50 ([2]; single agent) [nM] |
| --- | --- | --- | --- | --- | --- | --- |
| 20 | 10 | – | – | CC1(C)CCC(CN2CCN(c3ccc(C(=O)NS(=O)(=O)c4ccc(NCC5CCOCC5)c([N+](=O)[O-])c4)c(Oc4cnc5[nH]ccc5c4)c3)CC2)=C(c2ccc(Cl)cc2)C1 [venetoclax] | 720 | – |
| 96 | 68 | – | – | CC1(C)CCC(c2ccc(Cl)cc2)=C(CN2CCN(c3ccc(C(=O)NS(=O)(=O)c4ccc(N[C@H](CCN5CCOCC5)CSc5ccccc5)c(S(=O)(=O)C(F)(F)F)c4)cc3)CC2)C1 [navitoclax] | 390 | – |
| – | – | 120 | 69 | O=C(c1cc(-c2cc3c(cc2C(=O)N2Cc4ccccc4C[C@H]2CN2CCOCC2)OCO3)n2c1CCCC2)N(c1ccccc1)c1ccc(O)cc1 [Compound S-55746] | – | 1350 |
| 150 | 150 | – | – | COC1=CC(c2cc3ccccc3[nH]2)=N/C1=C\c1[nH]c(C)cc1C [obatoclax mesylate] | 190 | – |
